In patent US4634712A, “Antihypertensive esters of 1,4-dihydro-2,6-dimethyl-3-(alkoxycarbonyl or alkoxyalkoxycarbonyl)-4-(substituted phenyl)-pyridine-5-carboxylic acid” (Recordati S.A., priority 1984, dated 1987):

Columns and labels:
[1] = tested on: male hypertensive rats (SHR, Wister-Kyoto strain); experiment: Antihypertensive activity in male hypertensive rats (SHR), systolic blood pressure by tail-cuff; type: in vivo; details: Rattus norvegicus, po, os, 0.5% methylcellulose, measured 1, 3, 5 and 7 hours after administration
Experimental: The antihypertensive activity of the esters according to the invention was evaluated in male hypertensive rats (SHR, Wister-Kyoto strain, 15-25 weeks old). The determination of blood pressure was performed by an indirect method (M. Gerald et al., Arzneim, Forsch., 18, 1825, 1968). The animals were prewarmed in a heating chamber at a temperature of from 35° to 37° C. for a period of 15 minutes before pressure determination. The compounds tested by oral route were dissolved or suspended in a 0.5% methylcellulose solution. Controls were given only the vehicle. Systolic blood pressure and heart rate were measured 1, 3, 5 and 7 hours after drug administration by means of a tail-cuff and a pulse transducer.

[2] = tested on: methacholine induced coronary spasm; experiment: Coronary dilating activity in anesthetized normotensive rats, antagonism of methacholine induced coronary spasm; type: in vivo; details: Rattus norvegicus, iv infusion, water:dimethylformamide 9:1
Experimental: Coronary dilating activity was evaluated in anesthetized normotensive rats (weighing about 500 g), as the ability to antagonize methacholine induced coronary spasm. Rats were instrumented for methacholine infusion into the coronary ostium, while spastic activity was detected as ST segment elevation in D2 ECG recording (K. Sakai et al., J. Pharm. Meth., 5, 325, 1981). The compounds tested by i.v. infusion were dissolved in water:dimethylformamide (9:1 by volume). Activity was detected as normalization of ECG tracing after compounds administration during methacholine infusion.

[3] = LD50 in the mouse per os (method of C. S. Weil); details: in vivo, po
Experimental: The LD50 of the compounds according to the invention was determined in the mouse per os, according to the method described by C. S. Weil (Biometrics, 8, 249, 1952).

Structure (SMILES)	ED25 [1] [mg/kg]	ED50 [2] [mg/kg]	LD50 [3] [mg/kg]
COc1ccc(C(C#N)(CCCN(C)CC(C)OC(=O)C2=C(C)NC(C)=C(C(=O)OCC(C)C)C2c2cccc(Cl)c2Cl)C(C)C)cc1OC (centres unmarked) [Compound 2392, Isobutyl 2-[4-cyano-4-(3,4-dimethoxyphenyl)-5,N-dimethyl-hexylamino]-1-methylethyl 1,4-dihydro-2,6-dimethyl-4-(2,3-dichlorophenyl)-pyridine-3,5-dicarboxylate]	14.9	–	–
CCCOCCOC(=O)C1=C(C)NC(C)=C(C(=O)OC(C)CN(C)CCCC(C#N)(c2ccc(OC)c(OC)c2)C(C)C)C1c1cccc(Cl)c1Cl (centres unmarked) [Compound 2404, 2-Propoxy-ethyl 2-[4-cyano-4-(3,4-dimethoxyphenyl)-5,N-dimethyl-hexylamino]-1-methylethyl 1,4-dihydro-2,6-dimethyl-4-(2,3-dichlorophenyl)-pyridine-3,5-dicarboxylate]	17.8	–	–
COC(=O)C1=C(C)NC(C)=C(C(=O)OCCN(C)CCCC(C#N)(c2ccc(OC)c(OC)c2)C(C)C)C1c1cccc([N+](=O)[O-])c1 (centres unmarked) [Compound 2245, Methyl 2-[4-cyano-4-(3,4-dimethoxyphenyl)-5,N-dimethyl-hexylamino]-ethyl 1,4-dihydro-2,6-dimethyl-4-(3-nitrophenyl)-pyridine-3,5-dicarboxylate]	6.8	0.301	278
